According to paper doi:10.1101/2021.10.07.463234v2 (biorxiv, 2021):
Counter-ions that a name gives are not always drawn.

Target: SARS-CoV-2 Mac1 (Severe acute respiratory syndrome coronavirus 2, UniProt P0DTD1)
Assay: biochemical
Settings: for inhibition at 100 µM: read-out: %inhibition; for %inhibition: 100 µM, inhibitor

For `C[C@H]1O[C@@H](n2cc(F)c(=O)[nH]c2=O)[C@H](O)[C@@H]1O` [Doxifluridine], the inhibition at 100 µM was 0%.
`Cn1c(=O)c2c(ncn2CC2OCCO2)n(C)c1=O` [Doxofylline] gave an inhibition at 100 µM of 1.49%.
Compound `COc1cccc2c1C(=O)c1c(O)c3c(c(O)c1C2=O)CC(O)(C(=O)CO)CC3OC1CC(N)C(O)C(C)O1` (stereo not drawn) [Doxorubicin (Adriamycin) HCl] has an inhibition at 100 µM of 18.3%.
With `C[C@H]1c2cccc(O)c2C(=O)C2=C(O)[C@]3(O)C(=O)C(C(N)=O)=C(O)[C@@H](N(C)C)[C@@H]3[C@@H](O)[C@@H]21` [Doxycycline Hyclate] the “%inhibition” value was 21.8%.
In the case of `C[C@H]1c2cccc(O)c2C(=O)C2=C(O)[C@]3(O)C(=O)C(C(N)=O)=C(O)[C@@H](N(C)C)[C@@H]3[C@@H](O)[C@@H]21` [Doxycycline], the “%inhibition” value is reported as 4.525%.
`CN(C)CCOC(C)(c1ccccc1)c1ccccn1` (stereo not drawn) [Doxylamine Succinate] gave an inhibition at 100 µM of 4.4%.
`CCCCc1oc2ccc(NS(C)(=O)=O)cc2c1C(=O)c1ccc(OCCCN(CCCC)CCCC)cc1` [Dronedarone HCl] showed an inhibition at 100 µM of 0%.
`O=C(CCCN1CC=C(n2c(=O)[nH]c3ccccc32)CC1)c1ccc(F)cc1` [Droperidol] showed an inhibition at 100 µM of 1.08%.
In the case of `OCC(O)CN1CCN(c2ccccc2)CC1` (stereo not drawn) [Dropropizine], the inhibition at 100 µM is reported as 20.7%.
`C[C@]12CCC(=O)C=C1[C@@H]1C[C@@H]1[C@H]1[C@@H]3[C@@H]4C[C@@H]4[C@@]4(CCC(=O)O4)[C@@]3(C)CC[C@@H]12` [Drospirenone] showed an inhibition at 100 µM of 0%.
For `CNCC[C@H](Oc1cccc2ccccc12)c1cccs1` [Duloxetine HCl], the “%inhibition” value was 0%.
`CNCC[C@H](Oc1cccc2ccccc12)c1cccs1` [Duloxetine] was tested, and the “%inhibition” value was 8.877%.
For `C[C@]12C=CC(=O)N[C@@H]1CC[C@@H]1[C@@H]2CC[C@]2(C)[C@@H](C(=O)Nc3cc(C(F)(F)F)ccc3C(F)(F)F)CC[C@@H]12` [Dutasteride], the inhibition at 100 µM was 12%.
Compound `C[C@H](Nc1ncnc2nc[nH]c12)c1cc2cccc(Cl)c2c(=O)n1-c1ccccc1` [Duvelisib (IPI-145, INK1197)] has an inhibition at 100 µM of 2.52%.
For `CCCCOc1ccc(C(=O)CCN2CCCCC2)cc1` [Dyclonine HCl], the inhibition at 100 µM was 0%.
`Cn1c(=O)c2c(ncn2CC(O)CO)n(C)c1=O` (stereo not drawn) [Dyphylline] showed an inhibition at 100 µM of 0.0817%.
With `CC(C)c1cc2c(cc1S(=O)(=O)O)[C@@]1(C)CCC[C@@](C)(C(=O)O)[C@@H]1CC2` [Ecabet sodium] the inhibition at 100 µM was 10.4%.
`CC1=NN(c2ccccc2)C(=O)C1` [Edaravone] was tested, and the inhibition at 100 µM was 5.75%.
With `CN1CCc2nc(C(=O)N[C@@H]3C[C@@H](C(=O)N(C)C)CC[C@@H]3NC(=O)C(=O)Nc3ccc(Cl)cn3)sc2C1` [Edoxaban tosylate Monohydrate] the “%inhibition” value was 20.23%.
`CN1CCc2nc(C(=O)N[C@@H]3C[C@@H](C(=O)N(C)C)CC[C@@H]3NC(=O)C(=O)Nc3ccc(Cl)cn3)sc2C1` [Edoxaban] was tested, and the “%inhibition” value was 4.891%.
`O=C1Nc2ccc(Cl)cc2[C@@](C#CC2CC2)(C(F)(F)F)O1` [Efavirenz] showed an inhibition at 100 µM of 0%.
`C=C1CCN([C@H](C)[C@](O)(Cn2cncn2)c2ccc(F)cc2F)CC1` [Efinaconazole] gave an inhibition at 100 µM of 2.14%.
Compound `NCCCC(N)(C(=O)O)C(F)F` (stereo not drawn) [Eflornithine hydrochloride hydrate] has an inhibition at 100 µM of 0%.
`CC1=C(C(=O)OCCN(Cc2ccccc2)c2ccccc2)C(c2cccc([N+](=O)[O-])c2)C(P2(=O)OCC(C)(C)CO2)=C(C)N1` (stereo not drawn) [Efonidipine] was tested, and the inhibition at 100 µM was 14.5%.
With `COc1cccc(-c2c(C)n(Cc3c(F)cccc3C(F)(F)F)c(=O)n(C[C@H](NCCCC(=O)O)c3ccccc3)c2=O)c1F` [Elagolix Sodium] the inhibition at 100 µM was 0%.
For `COC(=O)N[C@H](C(=O)N1CCC[C@H]1c1nc(-c2ccc3c(c2)O[C@@H](c2ccccc2)n2c-3cc3cc(-c4c[nH]c([C@@H]5CCCN5C(=O)[C@@H](NC(=O)OC)C(C)C)n4)ccc32)c[nH]1)C(C)C` [Elbasvir], the inhibition at 100 µM was 8.16%.
Work on `CN1CCC[C@@H]1Cc1c[nH]c2ccc(CCS(=O)(=O)c3ccccc3)cc12` [Eletriptan HBr] yielded an inhibition at 100 µM of 0%.
`CCCCCCCC(=O)N[C@H](CN1CCCC1)[C@H](O)c1ccc2c(c1)OCCO2` [Eliglustat] was tested, and the inhibition at 100 µM was 2.49%.
Work on `O=c1oc2c(O)c(O)cc3c(=O)oc4c(O)c(O)cc1c4c23` [Ellagic acid] yielded an inhibition at 100 µM of 33.1%.
With `CC1=NN(c2ccc(C)c(C)c2)C(=O)/C1=N\Nc1cccc(-c2cccc(C(=O)O)c2)c1O` [Eltrombopag Olamine] the “%inhibition” value was 18.42%.
In the case of `CC1=NN(c2ccc(C)c(C)c2)C(=O)/C1=N\Nc1cccc(-c2cccc(C(=O)O)c2)c1O` [Eltrombopag], the “%inhibition” value is reported as 0%.
`COc1ccc(CN(C(=O)[C@@H](N)Cc2c(C)cc(C(N)=O)cc2C)[C@@H](C)c2ncc(-c3ccccc3)[nH]2)cc1C(=O)O` [Eluxadoline] was tested, and the inhibition at 100 µM was 5.52%.
In the case of `COc1cc2c(cc1Cc1cccc(Cl)c1F)c(=O)c(C(=O)O)cn2[C@H](CO)C(C)C` [Elvitegravir (GS-9137, JTK-303)], the inhibition at 100 µM is reported as 0%.
In the case of `CCOCCn1c(N2CCCN(C)CC2)nc2ccccc21` [Emedastine Difumarate], the “%inhibition” value is reported as 0.198%.
In the case of `CCOCCn1c(N2CCCN(C)CC2)nc2ccccc21` [Emedastine], the “%inhibition” value is reported as 0%.
`OC[C@H]1O[C@@H](c2ccc(Cl)c(Cc3ccc(O[C@H]4CCOC4)cc3)c2)[C@H](O)[C@@H](O)[C@@H]1O` [Empagliflozin (BI 10773)] gave an inhibition at 100 µM of 0%.
`C[C@H](NC(=O)C(=O)Nc1ccccc1C(C)(C)C)C(=O)N[C@@H](CC(=O)O)C(=O)COc1c(F)c(F)cc(F)c1F` [Emricasan] was tested, and the inhibition at 100 µM was 21%.
`Nc1nc(=O)n([C@@H]2CS[C@H](CO)O2)cc1F` [Emtricitabine] was tested, and the inhibition at 100 µM was 0%.
For `CCOC(=O)[C@H](CCc1ccccc1)N[C@@H](C)C(=O)N1CCC[C@H]1C(=O)O` [Enalapril Maleate], the inhibition at 100 µM was 16.8%.
`C[C@H](N[C@@H](CCc1ccccc1)C(=O)O)C(=O)N1CCC[C@H]1C(=O)O` [Enalaprilat Dihydrate] showed an inhibition at 100 µM of 10.6%.
`CC(C)(O)CNc1nc(Nc2ccnc(C(F)(F)F)c2)nc(-c2cccc(C(F)(F)F)n2)n1` [Enasidenib (AG-221)] was tested, and the inhibition at 100 µM was 6.78%.
For `COC(=O)N[C@@H](C)CNc1nccc(-c2cn(C(C)C)nc2-c2cc(Cl)cc(NS(C)(=O)=O)c2F)n1` [Encorafenib (LGX818)], the inhibition at 100 µM was 10.8%.
In the case of `CCn1cc(C(=O)O)c(=O)c2cc(F)c(N3CCNCC3)nc21` [Enoxacin Sesquihydrate], the “%inhibition” value is reported as 0%.
`CCn1cc(C(=O)O)c(=O)c2cc(F)c(N3CCNCC3)nc21` [Enoxacin] was tested, and the “%inhibition” value was 29.69%.
With `CC1(C)[C@@H](O)CC[C@]2(C)[C@H]3C(=O)C=C4[C@@H]5C[C@@](C)(C(=O)O)CC[C@]5(C)CC[C@@]4(C)[C@]3(C)CC[C@@H]12` [Enoxolone] the inhibition at 100 µM was 0%.
`CCN1CCN(c2cc3c(cc2F)c(=O)c(C(=O)O)cn3C2CC2)CC1` [Enrofloxacin] showed an inhibition at 100 µM of 16.9%.
For `CCN(CC)C(=O)/C(C#N)=C/c1cc(O)c(O)c([N+](=O)[O-])c1` [Entacapone], the inhibition at 100 µM was 0%.
For `C=C1[C@H](CO)[C@@H](O)C[C@@H]1n1cnc2c(=O)[nH]c(N)nc21` [Entecavir Hydrate], the “%inhibition” value was 11.65%.
For `C=C1[C@H](CO)[C@@H](O)C[C@@H]1n1cnc2c(=O)[nH]c(N)nc21` [Entecavir], the “%inhibition” value was 0%.
With `Nc1ccccc1NC(=O)c1ccc(CNC(=O)OCc2cccnc2)cc1` [Entinostat (MS-275)] the inhibition at 100 µM was 33.3%.
`c1cn2cc(-c3ccc4cn[nH]c4c3)nc(Nc3ccc(N4CCOCC4)cc3)c2n1` [Entospletinib (GS-9973)] showed an inhibition at 100 µM of 29.5%.
Compound `CN1CCN(c2ccc(C(=O)Nc3n[nH]c4ccc(Cc5cc(F)cc(F)c5)cc34)c(NC3CCOCC3)c2)CC1` [Entrectinib (RXDX-101)] has an inhibition at 100 µM of 8.59%.
`Cn1cc(C2=C(c3cn(C4CCN(Cc5ccccn5)CC4)c4ccccc34)C(=O)NC2=O)c2ccccc21` [Enzastaurin (LY317615)] gave an inhibition at 100 µM of 34.6%.
`NS(=O)(=O)NCCNc1nonc1/C(=N/O)Nc1ccc(F)c(Br)c1` [Epacadostat (INCB024360)] showed an inhibition at 100 µM of 14.8%.
In the case of `CC(/C=C1\SC(=S)N(CC(=O)O)C1=O)=C\c1ccccc1` [Epalrestat], the inhibition at 100 µM is reported as 0%.
`CCc1ccc(C(=O)C(C)CN2CCCCC2)cc1` (stereo not drawn) [Eperisone hydrochloride] was tested, and the inhibition at 100 µM was 10.4%.
For `NC1=NCC2c3ccccc3Cc3ccccc3N12` (stereo not drawn) [Epinastine HCl], the inhibition at 100 µM was 4.62%.
With `CNC[C@H](O)c1ccc(O)c(O)c1` [Epinephrine HCl] the “%inhibition” value was 5.697%.
With `CNC[C@H](O)c1ccc(O)c(O)c1` [Epinephrine bitartrate] the inhibition at 100 µM was 10.7%.
`COc1cccc2c1C(=O)c1c(O)c3c(c(O)c1C2=O)C[C@@](O)(C(=O)CO)C[C@@H]3O[C@H]1C[C@H](N)[C@@H](O)[C@H](C)O1` [Epirubicin HCl] was tested, and the inhibition at 100 µM was 51.4%.
Work on `COC(=O)[C@@H]1CC2=CC(=O)CC[C@]2(C)[C@@]23O[C@@H]2C[C@@]2(C)[C@@H](CC[C@@]24CCC(=O)O4)[C@H]13` [Eplerenone] yielded an inhibition at 100 µM of 3.58%.
In the case of `CCOC(CN1CCN(CC(C)C(=O)c2ccccc2)CC1)c1ccccc1` (stereo not drawn) [Eprazinone 2HCl], the inhibition at 100 µM is reported as 0%.
In the case of `O=S(=O)(O)CCCS(=O)(=O)O` [Eprodisate disodium], the inhibition at 100 µM is reported as 0%.
`CCCCc1ncc(/C=C(\Cc2cccs2)C(=O)O)n1Cc1ccc(C(=O)O)cc1` [Eprosartan Mesylate] was tested, and the inhibition at 100 µM was 26.7%.
For `O=C(O)CSCC(=O)NC1CCSC1=O` (stereo not drawn) [Erdosteine], the inhibition at 100 µM was 12.3%.
`C#Cc1cccc(Nc2ncnc3cc(OCCOC)c(OCCOC)cc23)c1` [Erlotinib HCl (OSI-744)] was tested, and the “%inhibition” value was 12.32%.
In the case of `C#Cc1cccc(Nc2ncnc3cc(OCCOC)c(OCCOC)cc23)c1` [Erlotinib], the “%inhibition” value is reported as 10.85%.
Compound `C[C@@H](O)[C@H]1C(=O)N2C(C(=O)O)=C(S[C@@H]3CN[C@H](C(=O)Nc4cccc(C(=O)O)c4)C3)[C@H](C)[C@H]12` [Ertapenem sodium] has an inhibition at 100 µM of 2.44%.
`CCOc1ccc(Cc2cc([C@]34OC[C@](CO)(O3)[C@@H](O)[C@H](O)[C@H]4O)ccc2Cl)cc1` [Ertugliflozin] showed an inhibition at 100 µM of 26.2%.
